Reference: patent US20240092745A1, “DRUGS AND COMPOSITIONS FOR THE TREATMENT OF OCULAR DISORDERS” (Graybug Vision, Inc., priority 2017, published 2024)
Converted amounts (≈) assume the structure as drawn. Counter-ions that a name gives are not always drawn. Like-named read-outs stand apart in the source and are kept apart here.

Assay: Determination of drug solubility in aqueous and organic solvent;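 note: solid drug suspended at 50 mg/mL nominal in each solvent, vortexed and sonicated, then dissolved concentration in filtered supernatant quantified by HPLC against a calibration curve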
Type: physicochemical
Conditions: for solubility: thermodynamic from solid
[1] = organic solvent or mixture, Table 3A, DMSO, read-out: Solubility DMSO
[2] = Table 3A, water, drug added to 50 mg/mL, read-out: Solubility Water
[3] = organic solvent or mixture, Table 3B, DMSO, read-out: Solubility DMSO
[4] = Table 3B, water, drug added to 50 mg/mL, read-out: Solubility Water
[5] = Table 3B, water, drug added to 50 mg/mL
[6] = organic solvent or mixture, Table 3A, DCM, read-out: Solubility DCM

Method: For each test, approximately 5-10 mg was transferred to a 10 mL glass vial. Aqueous or organic solvent was added to each vial to achieve an overall concentration of 50 mg/mL. After vortexing aggressively for 2-3 minutes and sonicating in a bath sonicator for 5 minutes, undissolved drug was spun down at 1200 rpm for 5 minutes to generate a pellet. The supernatant was collected and filtered through a 0.2 μm nylon syringe filter into HPLC vials for drug content analysis. Drug concentration was determined by comparing against a standard calibration curve.

| Molecule | solubility [1] [mg/mL] | solubility [2] [mg/mL] | solubility [3] [mg/mL] | solubility [4] [mg/mL] | other results |
| --- | --- | --- | --- | --- | --- |
| CC(=O)O[C@@H](C)C(=O)O[C@@H](C)C(=O)O[C@@H](C)C(=O)N1CCN=C1Nc1ccc2nccnc2c1Br [Compound 26-2, (S)-2-((S)-2-Acetoxy-propionyloxy)-propionic acid (S)-2-[2-(5-bromo-quinoxalin-6-ylamino)-4,5-dihydro-imidazol-1-yl]-1-methyl-2-oxo-ethyl ester] | > 50 | < 1 |  |  |  |
| COc1cccc(CN(CCO)C(=O)Nc2ccc(-c3cn[nH]c3)cc2OCCN2CCCC2)c1 [RKI-H-1y, 1-(2-hydroxyethyl)-1-[(3-methoxyphenyl)methyl]-3-[4-(1H-pyrazol-4-yl)-2-[2-(pyrrolidin-1-yl)ethoxy]phenyl]urea, reference compound] |  |  | > 100 | < 1 |  |
| CCCCCCCCCCCCCCCCCC(=O)O[C@@H](C)C(=O)O[C@@H](C)C(=O)O[C@@H](C)C(=O)O[C@@H](C)C(=O)O[C@@H](C)C(=O)O[C@@H](C)C(=O)O[C@@H](CNC(C)(C)C)COc1nsnc1N1CCOCC1 [Compound 42-2, Octadecanoic acid (S)-1-((S)-1-{(S)-1-[(S)-1-((S)-1-{(S)-1-[(S)-1-(tert-butylamino-methyl)-2-(4-morpholin-4-yl-[1,2,5]thiadiazol-3-yloxy)-ethoxycarbonyl]-ethoxycarbonyl}-ethoxycarbonyl)-ethoxycarbonyl]-ethoxycarbonyl}-ethoxycarbonyl)-ethyl ester maleate] | > 50 | < 1 |  |  |  |
| CCN(Cc1cccc(OC)c1)C(=O)Nc1ccc(-c2cn[nH]c2)cc1OCCN1CCCC1 [RKI-1y, 3-(4-(1H-pyrazol-4-yl)-2-(2-(pyrrolidin-1-yl)ethoxy)phenyl)-1-ethyl-1-(3-methoxybenzyl)urea, reference compound] |  |  | > 100 | < 1 |  |
| CC(=O)O[C@@H](C)C(=O)O[C@@H](C)C(=O)N1CCN(C(=O)[C@H](C)OC(=O)[C@H](C)OC(C)=O)C1=Nc1ccc2nccnc2c1Br [Compound 111-4, Brimonidine-bis-acetyl PLA(n=2)] | > 50 | < 1 |  |  |  |
| CC(=O)O[C@@H](C)C(=O)O[C@@H](C)C(=O)O[C@@H](C)C(=O)O[C@@H](C)C(=O)N1CCN(C(=O)[C@H](C)OC(=O)[C@H](C)OC(=O)[C@H](C)OC(=O)[C@H](C)OC(C)=O)C1=Nc1ccc2nccnc2c1Br [Compound 116-1, Brimonidine-bis-acetyl PLA(n=4)] | 100 (≈ 105 mM) |  |  |  |  |
| CCN[C@H]1CN(CCCOC)S(=O)(=O)c2sc(S(N)(=O)=O)cc21 [Brinzolamide, reference compound] | > 50 | < 1 |  |  | Solubility DCM (Table 3B, DCM): <7.5 mg/mL; Solubility DMSO (Table 3B, DMSO): >50 mg/mL; Solubility Water [5]: <1.0 mg/mL; solubility [6]: < 7.5 mg/mL |
| CCN[C@H]1C[C@H](C)S(=O)(=O)c2sc(S(N)(=O)=O)cc21 [Dorzolamide, reference compound] | < 1 | > 50 |  |  | Solubility DCM (Table 3B, DCM): <1.0 mg/mL; Solubility DMSO (Table 3B, DMSO): <1.0 mg/mL; Solubility Water [5]: >50 mg/mL; solubility [6]: < 1 mg/mL |
| CC(C)(C)NC[C@@H](COc1nsnc1N1CCOCC1)OC(=O)OC(C)(C)C [Compound 36-2, Carbonic acid tert-butyl ester (S)-1-(tert-butylamino-methyl)-2-(4-morpholin-4-yl-[1,2,5]thiadiazol-3-yloxy)-ethyl ester] | > 50 | < 1 |  |  |  |
| CCN(CC)CCNC(=O)c1c(C)[nH]c(/C=C2\C(=O)Nc3ccc(N)cc32)c1C [5-Amino Sunitinib, 5-[5-Amino-2-oxo-1,2-dihydro-indol-(3Z)-ylidenemethyl]-2,4-dimethyl-1H-pyrrole-3-carboxylic acid (2-diethylamino-ethyl)-amide, reference compound] | > 50 | < 1 |  |  |  |
| CCCCCCCCCCCCCCCCCC(=O)O[C@@H](C)C(=O)O[C@@H](C)C(=O)O[C@@H](C)C(=O)O[C@@H](C)C(=O)O[C@H](COc1nsnc1N1CCOCC1)CN(C(C)=O)C(C)(C)C [Compound 67-1, N-Acyl-Timolol-PLA (n = 4) Stearate] |  |  | 70 (≈ 76.7 mM) | < 1 |  |
| Brinzolamide (n = 1) |  |  |  |  | Solubility DCM (Table 3B, DCM): >50 mg/mL; Solubility DMSO (Table 3B, DMSO): >50 mg/mL; Solubility Water [5]: >50 mg/mL |
| N-acyl-Timolol-PLA (n = 2)-DHA [N-Acyl-Timolol-PLA (n = 2) DHA] |  |  |  |  | Solubility DMSO (Table 3B, DMSO): >100 mg/mL; Solubility Water [5]: <1.0 mg/mL |
| CC(=O)O[C@@H](C)C(=O)O[C@@H](C)C(=O)N1CCN(C(C)=O)C1=Nc1ccc2nccnc2c1Br [Compound 114-4, Brimonidine-acetyl PLA(n=2)-N-Acetate] | 100 (≈ 192 mM) | 1 (≈ 1.92 mM) |  |  |  |
| CC/C=C\C/C=C\C/C=C\C/C=C\C/C=C\C/C=C\CCC(=O)O[C@@H](CNC(C)(C)C)COc1nsnc1N1CCOCC1.O=C(O)/C=C\C(=O)O [Compound 53-3, (4Z,7Z,10Z,13Z,16Z,19Z)-Docosa-4,7,10,13,16,19-hexaenoic acid (S)-1-(tert-butylamino-methyl)-2-(4-morpholin-4-yl-[1,2,5]thiadiazol-3-yloxy)-ethylester maleate] |  |  | > 100 | < 1 |  |
| COc1cccc(CN(CCOC(=O)[C@H](C)OC(=O)[C@H](C)OC(=O)[C@H](C)OC(=O)[C@H](C)OC(C)=O)C(=O)Nc2ccc(-c3cn[nH]c3)cc2)c1 [Compound 88-3, SR5834-acetyl PLA(n=4)] |  |  | > 50 |  |  |
| CC(C)(C)NC[C@@H](COc1nsnc1N1CCOCC1)OC(=O)/C=C/C(=O)O[C@@H](CNC(C)(C)C)COc1nsnc1N1CCOCC1.O=C(O)/C=C\C(=O)O.O=C(O)/C=C\C(=O)O [Compound 78-1, Timolol-fumurate-Timolol-maleate] |  |  | > 100 | < 1 |  |
| CC(=O)O[C@@H](CNC(C)(C)C)COc1nsnc1N1CCOCC1.O=C(O)/C=C\C(=O)O [Compound 35-4, Acetic acid (S)-1-(tert-butylamino-methyl)-2-(4-morpholin-4-yl-[1,2,5]thiadiazol-3-yloxy)-ethyl ester maleate] | > 50 | < 1 |  |  |  |
| CC(=O)OC(C)C(=O)OC(C)C(=O)OC(C)C(=O)OC(C)C(=O)N(C[C@@H](COc1nsnc1N1CCOCC1)OC(=O)C(C)OC(=O)C(C)OC(C)=O)C(C)(C)C (stereo partly shown) [Compound 229, Timolol-bis-N-acetyl-PLA(n=4)-O-acetyl PLA(n=2)] |  |  | > 50 | < 0.006 |  |
| CC(=O)O[C@H](C)C(=O)O[C@@H](CNC(C)(C)C)COc1nsnc1N1CCOCC1.O=C(O)/C=C\C(=O)O [Compound 44-2, Timolol-acetyl PLA (n=1) maleate] | > 50 | < 1 |  |  |  |
| CC/C=C\C/C=C\C/C=C\C/C=C\C/C=C\C/C=C\CCC(=O)O[C@H](COc1nsnc1N1CCOCC1)CN(C(C)=O)C(C)(C)C [Compound 68-1, N-Acyl-Timolol-DHA] |  |  | > 100 | < 1 |  |
| CCCCC/C=C\C/C=C\CCCCCCCC(=O)O[C@@H](CNC(C)(C)C)COc1nsnc1N1CCOCC1.Cl [Compound 71-1, Timolol-O-Linoleic Acid-HCl] |  |  | > 50 | > 25 |  |
| CCN[C@H]1C[C@H](C)S(=O)(=O)c2sc(S(=O)(=O)NC(=O)[C@H](C)O)cc21 [Dorzolamide-PLA (n = 1), dorzolamide-PLA (n=1)] |  |  |  |  | Solubility DMSO (Table 3A, DMSO): <1.0 mg/mL; Solubility Water (Table 3A, water, drug added to 50 mg/mL): >50 mg/mL |
| CC(C)(C)NC[C@@H](COc1nsnc1N1CCOCC1)OC(=O)CCC(=O)O[C@@H](CNC(C)(C)C)COc1nsnc1N1CCOCC1.O=C(O)/C=C\C(=O)O [Compound 76-4, Timolol-succinic acid-Timolol-maleate] |  |  | > 100 | > 6.25 |  |
| CC(C)(C)NC[C@@H](COc1nsnc1N1CCOCC1)OC(=O)CCCCCCCCC(=O)O[C@@H](CNC(C)(C)C)COc1nsnc1N1CCOCC1.O=C(O)/C=C\C(=O)O [Compound 75-1, Timolol-Sebacic Acid-Timolol Maleate] |  |  | > 100 | < 1 |  |
| CC(=O)O[C@@H](C)C(=O)O[C@@H](C)C(=O)O[C@@H](C)C(=O)O[C@@H](C)C(=O)N1CCN=C1Nc1ccc2nccnc2c1Br [Compound 27-2, (S)-2-[(S)-2-((S)-2-Acetoxy-propionyloxy)-propionyloxy]-propionic acid (S)-2-[2-(5-bromo-quinoxalin-6-ylamino)-4,5-dihydro-imidazol-1-yl]-1-methyl-2-oxo-ethyl ester] | > 50 | < 1 |  |  |  |
| COc1cccc(CN(CCOC(=O)[C@H](C)OC(=O)[C@H](C)OC(=O)[C@H](C)OC(=O)[C@H](C)OC(C)=O)C(=O)Nc2ccc(-c3cnn(C(=O)[C@H](C)OC(=O)[C@H](C)OC(=O)[C@H](C)OC(=O)[C@H](C)OC(C)=O)c3)cc2)c1 [Compound 113-1, SR5834-bis-acetyl PLA(n=4)] |  |  | 50 (≈ 48.7 mM) | < 1 |  |
| CC(C)(C)NC[C@@H](COc1nsnc1N1CCOCC1)OC(=O)CCCC(=O)O[C@@H](CNC(C)(C)C)COc1nsnc1N1CCOCC1.O=C(O)/C=C\C(=O)O [Compound 77-1, Timolol-glutaric acid-Timolol-maleate] |  |  | > 100 | < 1 |  |
| CCCCCCCCCCCCCCCCCC(=O)O[C@@H](C)C(=O)O[C@@H](C)C(=O)O[C@@H](C)C(=O)O[C@@H](C)C(=O)NS(=O)(=O)c1cc2c(s1)S(=O)(=O)N(CCCOC)CC2NCC (stereo partly drawn) [Compound 15-2, Octadecanoic acid (S)-1-[(S)-1-((S)-1-{(S)-2-[4-ethylamino-2-(3-methoxy-propyl)-1,1-dioxo-1,2,3,4-tetrahydro-1λ*6*-thieno[3,2-e][1,2]thiazine-6-sulfonylamino]-1-methyl-2-oxo-ethoxycarbonyl}-ethoxycarbonyl)-ethoxycarbonyl]-ethyl ester] | > 50 | < 1 |  |  |  |
| CC(=O)OC(C)C(=O)OC(C)C(=O)OC(C)C(=O)OC(C)C(=O)N1CCN(C(C)=O)C1=Nc1ccc2nccnc2c1Br (stereo not shown) [Compound 115-1, Brimonidine-acetyl PLA(n=4)-N-Acetate] | 100 (≈ 150 mM) | < 0.2 |  |  |  |
